How the values were obtained:
Assay in all cases: relative viability (nuclei count vs DMSO), 5 days (fraction); higher = more cells survive
R406 + Bortezomib = compound: COc1cc(Nc2ncc(F)c(Nc3ccc4c(n3)NC(=O)C(C)(C)O4)n2)cc(OC)c1OC [R406] + CC(C)C[C@H](NC(=O)[C@H](Cc1ccccc1)NC(=O)c1cnccn1)B(O)O [Bortezomib] (partner 0.002 µM)
Outline: (§1)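 A single step with final 0.05% Triton X-100, 1% formaldehyde and 1 ug/ml Hoechst fixed the cells and stained nuclei 5 days after treatment. Lung cancer cell lines in 1536-well plates had been treated by pin tool the day after seeding with one drug alone or a fixed anchor-drug dose plus five library-drug doses (not always all listed) in √10 steps, and nuclei were counted on 4× images. Relative viability is the ratio of nuclei in treated wells to nuclei in vehicle wells, taken as the median of duplicate plates.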

R406 + Navitoclax = compound: COc1cc(Nc2ncc(F)c(Nc3ccc4c(n3)NC(=O)C(C)(C)O4)n2)cc(OC)c1OC [R406] + CC1(C)CCC(c2ccc(Cl)cc2)=C(CN2CCN(c3ccc(C(=O)NS(=O)(=O)c4ccc(N[C@H](CCN5CCOCC5)CSc5ccccc5)c(S(=O)(=O)C(F)(F)F)c4)cc3)CC2)C1 [Navitoclax] (partner 0.5 µM)
Outline: as §1

R406 + Pemetrexed = compound: COc1cc(Nc2ncc(F)c(Nc3ccc4c(n3)NC(=O)C(C)(C)O4)n2)cc(OC)c1OC [R406] + Nc1nc2[nH]cc(CCc3ccc(C(=O)N[C@@H](CCC(=O)O)C(=O)O)cc3)c2c(=O)[nH]1 [Pemetrexed] (partner 0.2 µM)
Outline: as §1

Daporinad + Phenformin = compound: O=C(/C=C/c1cccnc1)NCCCCC1CCN(C(=O)c2ccccc2)CC1 [Daporinad] + N=C(N)NC(=N)NCCc1ccccc1 [Phenformin] (partner 250 µM)
Outline: as §1

| Cell Line | relative viability (R406 + Bortezomib; first compound 0.08 µM) | relative viability (R406 + Bortezomib; first compound 0.253 µM) | relative viability (R406 + Bortezomib; first compound 0.8 µM) | relative viability (R406 + Bortezomib; first compound 2.53 µM) | relative viability (R406 + Bortezomib; first compound 8 µM) | relative viability (R406 + Navitoclax; first compound 0.08 µM) | relative viability (R406 + Navitoclax; first compound 0.253 µM) | relative viability (R406 + Navitoclax; first compound 0.8 µM) | relative viability (R406 + Navitoclax; first compound 2.53 µM) | relative viability (R406 + Navitoclax; first compound 8 µM) | relative viability (R406 + Pemetrexed; first compound 0.08 µM) | relative viability (R406 + Pemetrexed; first compound 0.253 µM) | relative viability (R406 + Pemetrexed; first compound 0.8 µM) | relative viability (R406 + Pemetrexed; first compound 2.53 µM) | relative viability (R406 + Pemetrexed; first compound 8 µM) | relative viability (Daporinad + Phenformin; first compound 0.0005 µM) | relative viability (Daporinad + Phenformin; first compound 0.001581 µM) | relative viability (Daporinad + Phenformin; first compound 0.005 µM) | relative viability (Daporinad + Phenformin; first compound 0.01581 µM) |
| --- | --- | --- | --- | --- | --- | --- | --- | --- | --- | --- | --- | --- | --- | --- | --- | --- | --- | --- | --- |
| 201T | 1.11 | 1.09 | 1.11 | 1.04 | 0.993 | 1.16 | 1.15 | 1.17 | 1.19 | 1.18 | 0.322 | 0.359 | 0.322 | 0.309 | 0.294 | 0.423 | 0.456 | 0.499 | 0.463 |
| A549 |  |  |  |  |  | 0.932 | 1.2 | 1.26 | 1.31 | 0.675 |  |  |  |  |  | 0.216 | 0.253 | 0.133 | 0.156 |
| ABC-1 | 0.399 | 0.321 | 0.317 | 0.251 | 0.265 |  |  |  |  |  |  |  |  |  |  | 0.257 | 0.244 | 0.285 | 0.285 |
| Calu-6 | 0.997 | 1.06 | 1.04 | 0.631 | 0.557 | 0.798 | 0.809 | 0.949 | 0.579 | 0.316 |  |  |  |  |  |  |  |  |  |
| EBC-1 | 0.606 | 0.616 | 0.672 | 0.44 | 0.231 | 0.433 | 0.403 | 0.422 | 0.317 | 0.189 |  |  |  |  |  |  |  |  |  |
| IA-LM | 0.878 | 0.841 | 0.815 | 0.904 | 0.705 | 0.799 | 1.03 | 0.946 | 1.02 | 0.843 |  |  |  |  |  |  |  |  |  |
| LCLC-103H | 0.972 | 1.29 | 1.08 | 0.781 | 0.9 |  |  |  |  |  | 0.477 | 0.462 | 0.486 | 0.499 | 0.376 | 0.351 | 0.341 | 0.358 | 0.327 |
| LK-2 |  |  |  |  |  | 0.726 | 1.06 | 0.889 | 0.527 | 0.455 | 0.192 | 0.326 | 0.38 | 0.191 | 0.126 | 0.651 | 0.305 | 0.314 | 0.159 |
| NCI-H358 |  |  |  |  |  |  |  |  |  |  | 0.167 | 0.17 | 0.168 | 0.146 | 0.145 | 0.297 | 0.404 | 0.445 | 0.303 |
| NCI-H522 |  |  |  |  |  |  |  |  |  |  | 0.832 | 1.04 | 1.09 | 0.937 | 0.747 | 0.654 | 0.758 | 0.695 | 0.682 |
| NCI-H650 | 0.712 | 0.852 | 0.977 | 0.625 | 0.389 |  |  |  |  |  | 0.912 | 1.13 | 0.953 | 0.779 | 0.591 | 0.45 | 0.422 | 0.522 | 0.507 |
| NCI-H661 | 0.769 | 0.877 | 0.945 | 0.721 | 0.469 |  |  |  |  |  | 0.943 | 0.92 | 0.86 | 0.767 | 0.685 | 0.266 | 0.284 | 0.308 | 0.288 |
| NCI-H727 | 0.803 | 0.965 | 1.1 | 0.278 | 0.747 | 0.39 | 0.44 | 0.46 | 0.381 | 0.325 |  |  |  |  |  | 0.529 | 0.657 | 0.67 | 0.522 |
| NCI-H1299 | 1 | 1.02 | 1.02 | 1.04 | 1.04 | 1.01 | 1.06 | 1.05 | 1.11 | 0.995 |  |  |  |  |  |  |  |  |  |
| NCI-H1395 |  |  |  |  |  | 1.18 | 1.18 | 1.49 | 0.881 | 0.947 | 0.865 | 1.01 | 0.856 | 0.865 | 0.434 | 0.431 | 0.421 | 0.471 | 0.482 |
| NCI-H1563 | 0.764 | 1 | 0.873 | 0.523 | 0.574 |  |  |  |  |  | 0.707 | 0.929 | 0.794 | 0.659 | 0.444 | 0.715 | 0.744 | 0.755 | 0.626 |
| NCI-H1623 |  |  |  |  |  |  |  |  |  |  |  |  |  |  |  | 0.545 | 0.519 | 0.613 | 0.591 |
| NCI-H1648 |  |  |  |  |  |  |  |  |  |  | 0.749 | 0.727 | 0.754 | 0.675 | 0.653 |  |  |  |  |
| NCI-H1703 | 0.451 | 0.32 | 0.588 | 0.183 | 0.167 | 1.17 | 1.05 | 1.23 | 0.189 | 0.149 |  |  |  |  |  |  |  |  |  |
| NCI-H1793 |  |  |  |  |  | 0.336 | 0.442 | 0.398 | 0.206 | 0.17 | 0.711 | 1.09 | 1.15 | 0.147 | 0.157 | 0.322 | 0.395 | 0.403 | 0.564 |
| NCI-H1944 |  |  |  |  |  | 0.992 | 1.05 | 1.05 | 0.846 | 0.743 | 0.617 | 0.617 | 0.684 | 0.571 | 0.411 | 0.206 | 0.219 | 0.214 | 0.241 |
| NCI-H2170 |  |  |  |  |  | 0.524 | 0.54 | 0.662 | 0.294 | 0.516 | 0.194 | 0.262 | 0.238 | 0.24 | 0.221 | 0.379 | 0.424 | 0.415 | 0.458 |
| NCI-H2342 |  |  |  |  |  |  |  |  |  |  | 0.737 | 0.835 | 0.862 | 0.749 | 0.774 | 0.62 | 0.61 | 0.595 | 0.546 |
| SK-MES-1 |  |  |  |  |  | 1.22 | 1.18 | 1.31 | 0.817 | 0.678 | 0.948 | 0.942 | 1.01 | 0.538 | 0.213 | 0.657 | 0.695 | 0.738 | 0.545 |
| SW 900 |  |  |  |  |  |  |  |  |  |  | 0.486 | 0.486 | 0.532 | 0.129 | 0.0856 | 0.518 | 0.674 | 0.798 | 0.595 |

Source: the supplement of paper PMC10307832
